Laboratory results published in patent US7880007B2, “Bicyclic substituted phenyl piperidine modulators of muscarinic receptors” (Vertex Pharmaceuticals Incorporated, priority 2004, dated 2011).

Key:
Type in all cases: cell-based
M1 muscarinic receptor = biological target: T1, M1 muscarinic receptor (Homo sapiens, UniProt P11229); test: Functional mobilization of intracellular calcium (FLIPR), M1-CHO cells; conditions: for Emax: 100% efficacy = maximum response obtained with the Carbachol control; for M1 Activity: M1-CHO cells, calcium mobilization (FLIPR)
T1 construct: expressed in transfected cells; host or cells: CHO (M1-CHO)
T1 sequence (P11229 1-460): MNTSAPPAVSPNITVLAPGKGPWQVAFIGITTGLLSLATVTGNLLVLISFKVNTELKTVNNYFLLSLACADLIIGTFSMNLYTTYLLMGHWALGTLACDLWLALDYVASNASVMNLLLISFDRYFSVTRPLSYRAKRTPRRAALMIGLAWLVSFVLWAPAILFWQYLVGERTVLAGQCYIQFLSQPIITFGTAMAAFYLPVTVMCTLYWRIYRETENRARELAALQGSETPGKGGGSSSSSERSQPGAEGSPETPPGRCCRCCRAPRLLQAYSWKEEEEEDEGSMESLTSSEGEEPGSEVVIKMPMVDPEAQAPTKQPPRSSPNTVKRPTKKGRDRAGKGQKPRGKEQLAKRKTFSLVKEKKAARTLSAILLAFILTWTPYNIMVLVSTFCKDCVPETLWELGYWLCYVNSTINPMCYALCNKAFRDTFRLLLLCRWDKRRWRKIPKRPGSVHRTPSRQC
Outline: (§1)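 Calcium mobilisation read by FLIPR over 60 s (ex 488/em 540 nm) in recombinant muscarinic CHO lines loaded with calcium dye plus 1 mM probenecid. Compounds tested as agonists alone, or as inhibitors against EC80 carbachol after 15 min pre-incubation or co-addition; 0.5% DMSO; efficacy scaled to carbachol maximal response.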

M2 muscarinic receptor = biological target: T2, M2 muscarinic receptor (Homo sapiens, UniProt P08172); test: Functional mobilization of intracellular calcium (FLIPR), M2-CHO cells; conditions: for Emax: 100% efficacy = maximum response obtained with the Carbachol control; for M2 Activity: M2-CHO cells, calcium mobilization (FLIPR)
T2 construct: expressed in transfected cells; host or cells: CHO (M2-CHO)
T2 sequence (P08172 1-466): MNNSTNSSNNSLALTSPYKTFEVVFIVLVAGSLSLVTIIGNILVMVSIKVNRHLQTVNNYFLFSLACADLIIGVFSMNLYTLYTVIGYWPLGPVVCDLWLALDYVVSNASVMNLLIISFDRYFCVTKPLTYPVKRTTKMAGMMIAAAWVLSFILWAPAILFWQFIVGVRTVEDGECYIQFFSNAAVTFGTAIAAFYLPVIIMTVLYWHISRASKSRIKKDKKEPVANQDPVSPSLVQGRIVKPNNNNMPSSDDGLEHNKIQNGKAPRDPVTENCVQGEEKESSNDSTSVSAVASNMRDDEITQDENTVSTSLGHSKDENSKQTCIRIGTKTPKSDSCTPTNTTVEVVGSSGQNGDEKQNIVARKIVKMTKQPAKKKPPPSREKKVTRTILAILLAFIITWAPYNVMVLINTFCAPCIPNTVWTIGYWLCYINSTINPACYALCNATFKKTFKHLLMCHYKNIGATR
Outline: as §1

M3 muscarinic receptor = biological target: T3, M3 muscarinic receptor (Homo sapiens, UniProt P20309); test: Functional mobilization of intracellular calcium (FLIPR), M3-CHO cells; conditions: for Emax: 100% efficacy = maximum response obtained with the Carbachol control; for M3 Activity: M3-CHO cells, calcium mobilization (FLIPR)
T3 construct: expressed in transfected cells; host or cells: CHO (M3-CHO)
T3 sequence (P20309 whole entry): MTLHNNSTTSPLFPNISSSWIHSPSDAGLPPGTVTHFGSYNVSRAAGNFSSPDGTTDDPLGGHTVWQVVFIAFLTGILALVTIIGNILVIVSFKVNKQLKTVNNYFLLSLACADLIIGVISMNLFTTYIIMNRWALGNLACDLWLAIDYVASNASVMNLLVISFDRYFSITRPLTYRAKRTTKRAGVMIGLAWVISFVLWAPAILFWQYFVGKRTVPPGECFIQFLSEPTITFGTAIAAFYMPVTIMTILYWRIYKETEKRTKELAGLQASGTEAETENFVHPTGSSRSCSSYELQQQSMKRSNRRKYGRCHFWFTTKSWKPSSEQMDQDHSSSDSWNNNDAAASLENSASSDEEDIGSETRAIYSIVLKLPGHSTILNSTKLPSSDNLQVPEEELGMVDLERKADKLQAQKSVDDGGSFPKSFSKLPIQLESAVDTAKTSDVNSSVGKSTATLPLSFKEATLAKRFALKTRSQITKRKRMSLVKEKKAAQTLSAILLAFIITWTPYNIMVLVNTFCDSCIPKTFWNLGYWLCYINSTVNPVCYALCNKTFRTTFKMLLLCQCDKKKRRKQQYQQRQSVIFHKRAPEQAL
Outline: as §1

M4 muscarinic receptor = biological target: T4, M4 muscarinic receptor (Homo sapiens, UniProt P08173); test: Functional mobilization of intracellular calcium (FLIPR), M4-CHO cells; conditions: for Emax: 100% efficacy = maximum response obtained with the Carbachol control; for M4 Activity: M4-CHO cells, calcium mobilization (FLIPR)
T4 construct: expressed in transfected cells; host or cells: CHO (M4-CHO)
T4 sequence (P08173 1-479): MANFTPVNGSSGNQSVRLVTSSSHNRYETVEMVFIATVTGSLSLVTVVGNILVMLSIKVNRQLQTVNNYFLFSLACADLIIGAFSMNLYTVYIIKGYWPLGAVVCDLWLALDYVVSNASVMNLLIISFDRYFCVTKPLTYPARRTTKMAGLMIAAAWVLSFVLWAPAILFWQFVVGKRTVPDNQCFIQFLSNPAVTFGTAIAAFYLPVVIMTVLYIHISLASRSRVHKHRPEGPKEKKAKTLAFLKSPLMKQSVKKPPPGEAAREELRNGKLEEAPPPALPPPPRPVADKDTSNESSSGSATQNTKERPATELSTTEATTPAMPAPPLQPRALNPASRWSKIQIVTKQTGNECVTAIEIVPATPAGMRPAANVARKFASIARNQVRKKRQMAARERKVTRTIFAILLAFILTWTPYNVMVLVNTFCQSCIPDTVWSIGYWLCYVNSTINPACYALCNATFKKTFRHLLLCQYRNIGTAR
Outline: as §1

Compound | Emax (M1 muscarinic receptor) [%] | M1 Activity (M1 muscarinic receptor) | Emax (M2 muscarinic receptor) [%] | M2 Activity (M2 muscarinic receptor) | Emax (M3 muscarinic receptor) [%] | M3 Activity (M3 muscarinic receptor) | Emax (M4 muscarinic receptor) [%] | M4 Activity (M4 muscarinic receptor)
COc1ccc(F)cc1C1CCN(CC2CC3CCC2CC3)CC1 (stereo not drawn) [Compound 104] | < 25 | + (activity was measured to be greater than 5.0 μM) | < 25 | + (activity was measured to be greater than 5.0 μM) | < 25 | + (activity was measured to be greater than 5.0 μM) | 25 to 100 | ++ (activity was measured to be from 1.0 μM to 5.0 μM)
COc1ccc(-c2ccc(C(C)(C)C#N)cc2)cc1C1CCN(C2CCCCC2)CC1 [Compound 105] | 25 to 100 | ++ (activity was measured to be from 1.0 μM to 5.0 μM) | 25 to 100 | + (activity was measured to be greater than 5.0 μM) | < 25 | + (activity was measured to be greater than 5.0 μM) | 25 to 100 | + (activity was measured to be greater than 5.0 μM)
CCOC(=O)N1CCC(N2CCC(c3cc(F)ccc3OC)CC2)CC1 [Compound 106] | 25 to 100 | +++ (activity was measured to be less than 1.0 μM) | 25 to 100 | +++ (activity was measured to be less than 1.0 μM) | < 25 | +++ (activity was measured to be less than 1.0 μM) | 25 to 100 | +++ (activity was measured to be less than 1.0 μM)
CCOC(=O)N1CCC(CN2CCC(OC)(c3cc(Cl)ccc3OC)CC2)CC1 [Compound 108] | 25 to 100 | +++ (activity was measured to be less than 1.0 μM) | < 25 | ++ (activity was measured to be from 1.0 μM to 5.0 μM) | < 25 | + (activity was measured to be greater than 5.0 μM) | 25 to 100 | +++ (activity was measured to be less than 1.0 μM)
COc1ccc(C(=O)C(C)(C)C)cc1C1CCN([C@H]2C[C@H]3CC[C@H]2C3)CC1 [Compound 109] | 25 to 100 | ++ (activity was measured to be from 1.0 μM to 5.0 μM) | < 25 | + (activity was measured to be greater than 5.0 μM) | < 25 | + (activity was measured to be greater than 5.0 μM) | 25 to 100 | + (activity was measured to be greater than 5.0 μM)
c1ccc(-c2ccccc2C2CCN([C@H]3C[C@H]4CC[C@H]3C4)CC2)cc1 [Compound 110] | < 25 | + (activity was measured to be greater than 5.0 μM) | < 25 | + (activity was measured to be greater than 5.0 μM) | < 25 | + (activity was measured to be greater than 5.0 μM) | 25 to 100 | ++ (activity was measured to be from 1.0 μM to 5.0 μM)
COCCOc1ccccc1C1CCN([C@H]2C[C@H]3CC[C@H]2C3)CC1 [Compound 111] | 25 to 100 | ++ (activity was measured to be from 1.0 μM to 5.0 μM) | 25 to 100 | + (activity was measured to be greater than 5.0 μM) | < 25 | + (activity was measured to be greater than 5.0 μM) | 25 to 100 | +++ (activity was measured to be less than 1.0 μM)
COc1ccccc1C1CCN(C2CC3CC(C)CC(C3)C2)CC1 (stereo not drawn) [Compound 112] | < 25 | + (activity was measured to be greater than 5.0 μM) | < 25 | + (activity was measured to be greater than 5.0 μM) | < 25 | + (activity was measured to be greater than 5.0 μM) | 25 to 100 | + (activity was measured to be greater than 5.0 μM)
COc1ccccc1C1CCN(C2CCCCC2)CC1 [Compound 113] | 25 to 100 | ++ (activity was measured to be from 1.0 μM to 5.0 μM) | < 25 | + (activity was measured to be greater than 5.0 μM) | < 25 | + (activity was measured to be greater than 5.0 μM) | 25 to 100 | +++ (activity was measured to be less than 1.0 μM)
c1ccc(COc2ccccc2C2CCN([C@H]3C[C@H]4CC[C@H]3C4)CC2)cc1 [Compound 114] | < 25 | + (activity was measured to be greater than 5.0 μM) | < 25 | + (activity was measured to be greater than 5.0 μM) | < 25 | + (activity was measured to be greater than 5.0 μM) | 25 to 100 | ++ (activity was measured to be from 1.0 μM to 5.0 μM)
COc1ccc(Cl)cc1C1CCN(C2CCC(F)(F)CC2)CC1 [Compound 115] | 25 to 100 | + (activity was measured to be greater than 5.0 μM) | < 25 | + (activity was measured to be greater than 5.0 μM) | < 25 | + (activity was measured to be greater than 5.0 μM) | 25 to 100 | ++ (activity was measured to be from 1.0 μM to 5.0 μM)
COc1cccc(-c2ccccc2C2CCN([C@H]3C[C@H]4CC[C@H]3C4)CC2)c1 [Compound 116] | 25 to 100 | + (activity was measured to be greater than 5.0 μM) | < 25 | + (activity was measured to be greater than 5.0 μM) | < 25 | + (activity was measured to be greater than 5.0 μM) | 25 to 100 | ++ (activity was measured to be from 1.0 μM to 5.0 μM)
COc1ccccc1[C@H]1CCN([C@@H]2C[C@H]3CC[C@H]2C3)C[C@@H]1O [Compound 117] | < 25 | + (activity was measured to be greater than 5.0 μM) | < 25 | + (activity was measured to be greater than 5.0 μM) | < 25 | + (activity was measured to be greater than 5.0 μM) | 25 to 100 | + (activity was measured to be greater than 5.0 μM)
CCOC(=O)N1C2CCC1CC(N1CCC(OC)(c3cc(F)ccc3OC)CC1)C2 (stereo not drawn) [Compound 118] | 25 to 100 | +++ (activity was measured to be less than 1.0 μM) | < 25 | + (activity was measured to be greater than 5.0 μM) | < 25 | + (activity was measured to be greater than 5.0 μM) | 25 to 100 | +++ (activity was measured to be less than 1.0 μM)
COc1cccc(C(=O)COc2ccccc2C2CCN([C@H]3C[C@H]4CC[C@H]3C4)CC2)c1 [Compound 119] | 25 to 100 | + (activity was measured to be greater than 5.0 μM) | 25 to 100 | + (activity was measured to be greater than 5.0 μM) | < 25 | + (activity was measured to be greater than 5.0 μM) | 25 to 100 | ++ (activity was measured to be from 1.0 μM to 5.0 μM)
